Assay results: PubChem BioAssay (NCI)
Values joined by “and” are separate entries in the source; they are usually repeats but may differ in a detail not shown here. Equal entries are not always repeated.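 How tested: cells in 96-well plates exposed to compound for 48 hours at five concentrations. GI50 is the concentration that inhibits growth by half. TGI is the concentration that stops growth completely.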

Assays:
Assay in all cases: NCI anticancer screen, dose series, 48 h
ACHN renal = test system: ACHN renal
HCC-2998 colon = test system: HCC-2998 colon
HL-60(TB) leukemia = test system: HL-60(TB) leukemia
MALME-3M melanoma = test system: MALME-3M melanoma
MDA-MB-231 breast = test system: MDA-MB-231 breast
NCI-H460 lung = test system: NCI-H460 lung
PC-3 prostate = test system: PC-3 prostate
SK-MEL-28 melanoma = test system: SK-MEL-28 melanoma
SNB-19 CNS = test system: SNB-19 CNS
SNB-75 CNS = test system: SNB-75 CNS

CCc1ccc(NC(=O)NC(=O)c2ccccc2[N+](=O)[O-])cc1Oc1ncc(Cl)cn1
TGI (ACHN renal): > 100 µM
TGI (HCC-2998 colon): 0.0695 µM
TGI (HL-60(TB) leukemia): 0.0247 µM
TGI (MALME-3M melanoma): > 100 µM
TGI (MDA-MB-231 breast): 52.3 µM
TGI (NCI-H460 lung): 0.0508 µM
TGI (PC-3 prostate): > 100 µM
TGI (SK-MEL-28 melanoma): > 4.64 µM
TGI (SNB-19 CNS): > 100 µM

C=C(CC(NC(=O)c1ccc(C(CC)Cc2cnc3nc(N)nc(N)c3n2)cc1)C(=O)O)C(=O)O (stereo not drawn)
TGI (ACHN renal): > 100 µM
GI50 (HCC-2998 colon): 0.0265 µM
TGI (HL-60(TB) leukemia): > 100 µM
TGI (NCI-H460 lung): > 100 µM
TGI (SK-MEL-28 melanoma): > 100 µM
TGI (SNB-19 CNS): > 100 µM
TGI (SNB-75 CNS): > 100 µM

CC1=Nc2c(ccc3c2C(=O)c2ccccc2C3=O)NC(c2cccc3c2CCC3)C1 (stereo not drawn)
TGI (ACHN renal): > 100 µM
TGI (HCC-2998 colon): > 100 µM
TGI (HL-60(TB) leukemia): > 100 µM
TGI (MALME-3M melanoma): > 100 µM
TGI (NCI-H460 lung): > 100 µM
TGI (SK-MEL-28 melanoma): > 100 µM
TGI (SNB-19 CNS): > 100 µM
TGI (SNB-75 CNS): > 100 µM

COC12CCC(=O)C=C1c1ccccc1N2C(C)=O (stereo not drawn)
TGI (ACHN renal): > 100 µM
TGI (HCC-2998 colon): > 100 µM
TGI (HL-60(TB) leukemia): > 100 µM
TGI (NCI-H460 lung): > 100 µM
TGI (SK-MEL-28 melanoma): > 100 µM
TGI (SNB-19 CNS): > 100 µM
TGI (SNB-75 CNS): > 100 µM

CCNC(=O)COc1ccc(Br)cc1Br
TGI (ACHN renal): > 100 µM
TGI (HCC-2998 colon): > 100 µM
TGI (HL-60(TB) leukemia): > 100 µM
TGI (MALME-3M melanoma): > 100 µM
TGI (NCI-H460 lung): > 100 µM
TGI (SK-MEL-28 melanoma): > 100 µM
TGI (SNB-19 CNS): > 100 µM
TGI (SNB-75 CNS): > 100 µM

N#Cc1ccccc1C(Cl)(Cl)c1cnccn1
TGI (ACHN renal): > 100 µM
TGI (HCC-2998 colon): > 100 µM
TGI (HL-60(TB) leukemia): 70.2 µM
TGI (NCI-H460 lung): > 100 µM
TGI (SK-MEL-28 melanoma): > 100 µM
TGI (SNB-19 CNS): > 100 µM

CC(Oc1ccc2c(-c3ccccc3)cc(=O)oc2c1)C(=O)O (stereo not drawn)
TGI (ACHN renal): > 100 µM
TGI (HCC-2998 colon): > 100 µM
TGI (HL-60(TB) leukemia): > 100 µM
TGI (MALME-3M melanoma): > 100 µM
TGI (NCI-H460 lung): > 100 µM
TGI (SK-MEL-28 melanoma): > 100 µM
TGI (SNB-19 CNS): > 100 µM
TGI (SNB-75 CNS): > 100 µM

O=C(Cc1nc2ccccc2c(=O)n1-c1ccccc1Cl)c1ccncc1
TGI (ACHN renal): > 100 µM
TGI (HCC-2998 colon): > 100 µM
TGI (HL-60(TB) leukemia): > 100 µM
TGI (MALME-3M melanoma): > 100 µM
TGI (NCI-H460 lung): > 100 µM
TGI (SK-MEL-28 melanoma): > 100 µM
TGI (SNB-19 CNS): > 100 µM
TGI (SNB-75 CNS): 71.7 µM

O=C(CCC(=O)Nc1ccc(Cl)c(Cl)c1)CC(=O)c1ccc(Br)cc1
TGI (ACHN renal): > 100 µM
TGI (MALME-3M melanoma): > 100 µM
TGI (SK-MEL-28 melanoma): > 100 µM
TGI (SNB-19 CNS): > 100 µM
TGI (SNB-75 CNS): > 100 µM

C#Cc1cccc(N2C(=O)c3c(c(-c4ccccc4)c(-c4ccc(Cc5ccc(-c6c(-c7ccccc7)c7c(c(-c8ccccc8)c6-c6ccccc6)C(=O)N(c6cccc(C#C)c6)C7=O)cc5)cc4)c(-c4ccccc4)c3-c3ccccc3)C2=O)c1
TGI (ACHN renal): > 100 µM
TGI (HCC-2998 colon): > 100 µM
TGI (HL-60(TB) leukemia): > 100 µM
TGI (MALME-3M melanoma): > 100 µM
TGI (NCI-H460 lung): > 100 µM
TGI (SK-MEL-28 melanoma): > 100 µM
TGI (SNB-19 CNS): > 100 µM
TGI (SNB-75 CNS): 79.9 µM

COc1ccc(NC(=O)CSC2=C(Nc3cccc(Br)c3)C(=O)N(Cc3ccccc3)C2=O)cc1Cl
GI50 (ACHN renal): > 100 µM
TGI (ACHN renal): > 100 µM
GI50 (HL-60(TB) leukemia): 3.41 µM
TGI (HL-60(TB) leukemia): > 100 µM
GI50 (MDA-MB-231 breast): > 100 µM
TGI (MDA-MB-231 breast): > 100 µM
GI50 (NCI-H460 lung): 29.9 µM
TGI (NCI-H460 lung): > 100 µM
GI50 (PC-3 prostate): 8.82 µM
TGI (PC-3 prostate): > 100 µM
GI50 (SK-MEL-28 melanoma): > 100 µM
TGI (SK-MEL-28 melanoma): > 100 µM
GI50 (SNB-19 CNS): > 100 µM
TGI (SNB-19 CNS): > 100 µM
GI50 (SNB-75 CNS): > 100 µM
TGI (SNB-75 CNS): > 100 µM

O=C(/C=C/C12c3ccccc3C(c3ccccc31)C1C(=O)NC(=O)C12)c1ccc(Cl)cc1Cl (stereo not drawn)
GI50 (ACHN renal): 1.76 µM
TGI (ACHN renal): 3.15 µM
GI50 (HCC-2998 colon): 1.81 µM
TGI (HCC-2998 colon): 3.41 µM
GI50 (MALME-3M melanoma): 1.71 µM
TGI (MALME-3M melanoma): 3.12 µM
GI50 (MDA-MB-231 breast): 2.31 µM
TGI (MDA-MB-231 breast): 5.82 µM
GI50 (NCI-H460 lung): 1.85 µM
TGI (NCI-H460 lung): 3.82 µM
GI50 (PC-3 prostate): 1.55 µM
TGI (PC-3 prostate): 3.08 µM
GI50 (SK-MEL-28 melanoma): 1.78 µM
TGI (SK-MEL-28 melanoma): 3.27 µM
GI50 (SNB-19 CNS): 1.62 µM
TGI (SNB-19 CNS): 3.03 µM
GI50 (SNB-75 CNS): 1.64 µM
TGI (SNB-75 CNS): 3.08 µM

COc1ccc(NC(=O)/C(=C/c2ccccc2)C(C)=O)cc1
TGI (ACHN renal): 42.2 µM
TGI (HCC-2998 colon): 33.5 µM
TGI (HL-60(TB) leukemia): 17.7 µM
TGI (MALME-3M melanoma): 32.3 µM
TGI (NCI-H460 lung): 62.5 µM
TGI (SK-MEL-28 melanoma): 26.1 µM
TGI (SNB-19 CNS): 33.4 µM
TGI (SNB-75 CNS): 21 µM

COc1ccc(S(=O)(=O)N2CCN(C(=O)c3ccc(-c4ccccc4)cc3)CC2C(=O)NO)cc1 (stereo not drawn)
GI50 (ACHN renal): 3.28 µM and 20.6 µM
TGI (ACHN renal): 12.5 µM and 99.5 µM
GI50 (HL-60(TB) leukemia): 16.8 µM
TGI (HL-60(TB) leukemia): 38.1 µM
GI50 (MALME-3M melanoma): 2.25 µM and 17.3 µM
GI50 (NCI-H460 lung): 3.62 µM and 29.3 µM
TGI (NCI-H460 lung): 12.5 µM and > 100 µM
GI50 (PC-3 prostate): 2.01 µM and 17.9 µM
TGI (SK-MEL-28 melanoma): 12.5 µM and > 100 µM
TGI (SNB-19 CNS): 12.5 µM and > 100 µM
GI50 (SNB-75 CNS): 3.66 µM
TGI (SNB-75 CNS): 10.3 µM

CC1/C=C/[C@@]2(C)CCC(C(C)(C)O)C2C(O)C[C@](C)(O)/C=C/C1 (stereo partly drawn)
TGI (ACHN renal): > 100 µM
TGI (HCC-2998 colon): > 100 µM
TGI (HL-60(TB) leukemia): > 100 µM
TGI (MALME-3M melanoma): > 100 µM
TGI (NCI-H460 lung): > 100 µM
TGI (SK-MEL-28 melanoma): > 100 µM
TGI (SNB-19 CNS): > 100 µM
TGI (SNB-75 CNS): > 100 µM

O=C1c2ccccc2-[n+]2ccc3c([nH]c4ccccc43)c21
TGI (ACHN renal): 4.08 µM
TGI (HCC-2998 colon): 0.484 µM
TGI (HL-60(TB) leukemia): 1.38 µM
TGI (MALME-3M melanoma): 0.181 µM
TGI (NCI-H460 lung): 1.43 µM
TGI (PC-3 prostate): 1.08 µM
TGI (SK-MEL-28 melanoma): 1.16 µM
TGI (SNB-19 CNS): 2.27 µM
TGI (SNB-75 CNS): 1.93 µM

Cc1ccc(NC(=O)CCc2nc(N)nc(N)c2-c2ccccc2)cc1C
TGI (ACHN renal): > 100 µM
TGI (HCC-2998 colon): > 100 µM
TGI (HL-60(TB) leukemia): > 100 µM
TGI (MALME-3M melanoma): > 100 µM
TGI (NCI-H460 lung): > 100 µM
TGI (SK-MEL-28 melanoma): > 100 µM
TGI (SNB-19 CNS): > 100 µM
TGI (SNB-75 CNS): > 100 µM

CCC1CC2C(=O)N(c3ccccc3)C(=O)C2c2[nH]c3ccccc3c21 (stereo not drawn)
TGI (ACHN renal): > 100 µM
TGI (HCC-2998 colon): > 100 µM
TGI (HL-60(TB) leukemia): 98 µM
TGI (MALME-3M melanoma): 38.7 µM
TGI (NCI-H460 lung): 64.6 µM
TGI (SK-MEL-28 melanoma): > 100 µM
TGI (SNB-19 CNS): 75.1 µM
TGI (SNB-75 CNS): 13 µM

Cc1nn[n-]n1.N.N.N.N.N.[Cl-].[Co+3]
GI50 (ACHN renal): > 100 µM
TGI (ACHN renal): > 100 µM
GI50 (HCC-2998 colon): > 100 µM
TGI (HCC-2998 colon): > 100 µM
GI50 (HL-60(TB) leukemia): > 100 µM
TGI (HL-60(TB) leukemia): > 100 µM
GI50 (MALME-3M melanoma): > 100 µM
TGI (MALME-3M melanoma): > 100 µM
GI50 (NCI-H460 lung): > 100 µM
TGI (NCI-H460 lung): > 100 µM
GI50 (SK-MEL-28 melanoma): > 100 µM
TGI (SK-MEL-28 melanoma): > 100 µM
GI50 (SNB-19 CNS): > 100 µM
TGI (SNB-19 CNS): > 100 µM
GI50 (SNB-75 CNS): > 100 µM
TGI (SNB-75 CNS): > 100 µM

O=S(=O)(NCCNc1nccc(-c2c(-c3ccc(F)c(O)c3)nc3sccn23)n1)c1ccc(F)cc1
GI50 (ACHN renal): 2.58 µM
TGI (ACHN renal): 28.5 µM
GI50 (HCC-2998 colon): 4.45 µM
TGI (HCC-2998 colon): 17.2 µM
GI50 (HL-60(TB) leukemia): 2.14 µM
TGI (HL-60(TB) leukemia): 6.09 µM
GI50 (MALME-3M melanoma): 0.232 µM
TGI (MALME-3M melanoma): 1.37 µM
GI50 (MDA-MB-231 breast): 2.23 µM
TGI (MDA-MB-231 breast): > 100 µM
GI50 (NCI-H460 lung): 3.43 µM
TGI (NCI-H460 lung): 17.2 µM
GI50 (SK-MEL-28 melanoma): 0.429 µM
TGI (SK-MEL-28 melanoma): 21.9 µM
GI50 (SNB-19 CNS): 4.26 µM
TGI (SNB-19 CNS): > 100 µM
GI50 (SNB-75 CNS): 1.55 µM
TGI (SNB-75 CNS): 8.81 µM

CCOC(=O)C(=O)Nc1ccccc1C
TGI (ACHN renal): > 100 µM
TGI (HCC-2998 colon): > 100 µM
TGI (HL-60(TB) leukemia): > 100 µM
TGI (MALME-3M melanoma): > 100 µM
TGI (NCI-H460 lung): > 100 µM
TGI (SK-MEL-28 melanoma): > 100 µM
TGI (SNB-19 CNS): > 100 µM
TGI (SNB-75 CNS): > 100 µM
